Several values for one entry are separate records, joined by “and”; a condition that tells them apart may be missing. Equal values may be shown once. Inconclusive results and toxic doses are left out. Rule as the data show it: active = T/C of 150% or more; inactive = T/C below 125%.
Tested on: L1210 leukemia ip in BDF1 mice, survival T/C
Test: NCI In Vivo Anticancer Drug Screen. Data for tumor model L1210 Leukemia (intraperitoneal) in B6D2F1 (BDF1) mice
Settings: endpoint: mean survival time, higher = longer survival
Method in brief: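 Value reflects the ratio of survival in compound-treated mice to survival in vehicle-treated controls, with both groups carrying the same transplanted tumor.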

[1] = dose: 100.0 mg/kg/injection, schedule: Q01DX009 (ip), vehicle: Klucel (hydroxypropylcellulose) (HPC)
[2] = dose: 200.0 mg/kg/injection, schedule: Q01DX009 (ip), vehicle: Klucel (hydroxypropylcellulose) (HPC)
[3] = dose: 400.0 mg/kg/injection, schedule: Q01DX009 (ip), vehicle: Klucel (hydroxypropylcellulose) (HPC)
[4] = dose: 100.0 mg/kg/injection, schedule: Q04DX003 (ip), vehicle: saline
[5] = dose: 200.0 mg/kg/injection, schedule: Q04DX003 (ip), vehicle: saline
[6] = dose: 400.0 mg/kg/injection, schedule: Q04DX003 (ip), vehicle: saline
[7] = dose: 100.0 mg/kg/injection, schedule: Q04DX002 (ip), vehicle: saline with Tween-80
[8] = dose: 200.0 mg/kg/injection, schedule: Q04DX002 (ip), vehicle: saline with Tween-80
[9] = dose: 400.0 mg/kg/injection, schedule: Q04DX002 (ip), vehicle: saline with Tween-80
[10] = dose: 100.0 mg/kg/injection, schedule: Q04DX003 (ip), vehicle: Klucel (hydroxypropylcellulose) (HPC)
[11] = dose: 200.0 mg/kg/injection, schedule: Q04DX003 (ip), vehicle: Klucel (hydroxypropylcellulose) (HPC)
[12] = dose: 400.0 mg/kg/injection, schedule: Q04DX003 (ip), vehicle: Klucel (hydroxypropylcellulose) (HPC)
[13] = dose: 50.0 mg/kg/injection, schedule: Q01DX001 (ip), vehicle: saline
[14] = dose: 100.0 mg/kg/injection, schedule: Q01DX001 (ip), vehicle: saline
[15] = dose: 200.0 mg/kg/injection, schedule: Q01DX001 (ip), vehicle: saline
[16] = dose: 400.0 mg/kg/injection, schedule: Q01DX001 (ip), vehicle: saline
[17] = dose: 100.0 mg/kg/injection, schedule: Q04DX003 (ip), vehicle: saline with Tween-80
[18] = dose: 200.0 mg/kg/injection, schedule: Q04DX003 (ip), vehicle: saline with Tween-80
[19] = dose: 50.0 mg/kg/injection, schedule: Q04DX003 (ip), vehicle: saline with Tween-80

Measured: T/C

Cc1ccc([N+](=O)[O-])cc1NC(=O)NCc1ccccc1
inactive: [1] 89 % of control | [2] 89 % of control | [3] 97 % of control

O=C(C1C2CCC(CC2)C1C(=O)N1CCOCC1)N1CCOCC1 (centres undefined)
inactive: [4] 100 % of control | [5] 100 % of control | [6] 103 % of control

CNCC1C(c2ccc(OC)cc2)C1c1ccc(OC)cc1 (centres undefined)
inactive: dose: 12.5 mg/kg/injection, schedule: Q04DX002 (ip), vehicle: Klucel (hydroxypropylcellulose) (HPC) 102 % of control | dose: 25.0 mg/kg/injection, schedule: Q04DX002 (ip), vehicle: Klucel (hydroxypropylcellulose) (HPC) 108 % of control | dose: 50.0 mg/kg/injection, schedule: Q04DX002 (ip), vehicle: Klucel (hydroxypropylcellulose) (HPC) 94 % of control

CN(C)N=Nc1ccc(C(=O)N/N=C/c2ccc([N+](=O)[O-])cc2)cc1
inactive: [7] 100 % of control | [8] 94 % of control | [9] 99 % of control

CCP(CC)c1cccc(OC(=O)NC)c1
inactive: dose: 5.0 mg/kg/injection, schedule: Q01DX001 (ip), vehicle: saline 110 % of control | dose: 10.0 mg/kg/injection, schedule: Q01DX001 (ip), vehicle: saline 104 % of control | dose: 20.0 mg/kg/injection, schedule: Q01DX001 (ip), vehicle: saline 107 % of control

CN(C)CCCN1c2ccccc2Sc2cc(C=[N+](C)C)ccc21
inactive: dose: 100.0 mg/kg/injection, schedule: Q04DX003 (sc), vehicle: olive oil, sesame oil, peanut oil 103 % of control | dose: 200.0 mg/kg/injection, schedule: Q04DX003 (sc), vehicle: olive oil, sesame oil, peanut oil 98 % of control | dose: 400.0 mg/kg/injection, schedule: Q04DX003 (sc), vehicle: olive oil, sesame oil, peanut oil 108 % of control

CC(C)N(CCSc1ncnc2nc[nH]c12)C(C)C
inactive: dose: 75.0 mg/kg/injection, schedule: Q01DX001 (ip), vehicle: saline 96 % of control

CC(C)=C(B1OC(C)(C)C(C)(C)O1)B1OC(C)(C)C(C)(C)O1
inactive: [10] 93 % of control | [11] 95 % of control | [12] 97 % of control

CC(COC(=O)c1ccc(N)cc1)NC1CCCCC1 (centres undefined)
inactive: dose: 75.0 mg/kg/injection, schedule: Q01DX001 (ip), vehicle: other 96 % of control | dose: 150.0 mg/kg/injection, schedule: Q01DX001 (ip), vehicle: other 102 % of control

COc1cccc(NC(=O)Nc2cccc(Cl)c2)c1
inactive: [1] 94 % of control | [3] 95 % of control

O=Cc1cc(=O)[nH]c(=O)[nH]1
inactive: [13] 109 % of control | [14] 109 % of control | [15] 105 % of control | [16] 97 % of control

NC(=O)/C(=C\c1ccncc1)c1cccc2ccccc12
inactive: [1] 97 % of control | [17] 108 % of control | [2] 97 % of control | [18] 88 % of control

CC(C)(CO)c1ccccc1
inactive: [14] 104 % of control | [15] 104 % of control | [16] 107 % of control

O=C1/C(=C\c2ccccc2)N2CCC1CC2
inactive: [7] 87 % of control | [4] 103 % of control | [8] 91 % of control | [5] 108 % of control | [9] 87 % of control | [6] 103 % of control

CCC[n+]1c(C)oc2ccc(-c3ccccc3)cc21
inactive: dose: 50.0 mg/kg/injection, schedule: Q01DX009 (ip), vehicle: saline with Tween-80 97 % of control | dose: 100.0 mg/kg/injection, schedule: Q01DX001 (ip), vehicle: saline with Tween-80 94 % of control | dose: 100.0 mg/kg/injection, schedule: Q01DX009 (ip), vehicle: saline with Tween-80 101 % of control | dose: 200.0 mg/kg/injection, schedule: Q01DX001 (ip), vehicle: saline with Tween-80 99 % of control | dose: 400.0 mg/kg/injection, schedule: Q01DX001 (ip), vehicle: saline with Tween-80 90 % of control

CCCCN(Cl)C(C)=O
inactive: [14] 96 % of control | [15] 100 % of control | [16] 96 % of control

OC1C2CCC(C2)[CH]1[Hg][Cl] (centres undefined)
inactive: dose: 15.0 mg/kg/injection, schedule: Q01DX001 (ip), vehicle: carboxymethylcellulose (CMC) 95 % of control

OC12CC3CC(CC(C3)C1)C2
inactive: [14] 95 % of control | [15] 106 % of control | [16] 103 % of control

CC12OC(c3ccccc3)(C3=C1C1CCC(C1)C3(C)C)c1ccccc12 (centres undefined)
inactive: dose: 50.0 mg/kg/injection, schedule: Q01DX009 (ip), vehicle: saline 89 % of control | [14] 103 % of control | [15] 100 % of control | [16] 112 % of control

O=C(NCC1=NCCN1)c1ccccc1
inactive: dose: 100.0 mg/kg/injection, schedule: Q04DX002 (ip), vehicle: saline 96 % of control | dose: 200.0 mg/kg/injection, schedule: Q04DX002 (ip), vehicle: saline 89 % of control | dose: 400.0 mg/kg/injection, schedule: Q04DX002 (ip), vehicle: saline 96 % of control

NC(N)=NCCCC(N=Cc1ccccc1O)C(=O)O (centres undefined)
inactive: [14] 96 % of control | [15] 102 % of control | [16] 95 % of control

O=C(CC1CCCCC1O)Nc1ccccc1 (centres undefined)
inactive: [13] 97 % of control | [14] 95 % of control | [15] 101 % of control | [16] 97 % of control

Nc1nc2ccccc2c(=O)[nH]1
inactive: dose: 25.0 mg/kg/injection, schedule: Q04DX003 (ip), vehicle: saline with Tween-80 110 % of control | [19] 96 % of control | [17] 102 % of control and 106 % of control

N[n+]1ccccc1
inactive: [7] 102 % of control | [8] 102 % of control | [9] 98 % of control

CC1(C)C2CC=C(CCOC(=O)COc3cc(Cl)c(Cl)cc3Cl)C1C2 (centres undefined)
inactive: dose: 160.0 mg/kg/injection, schedule: Q01DX Z (ip), vehicle: other 105 % of control | dose: 240.0 mg/kg/injection, schedule: Q01DX Z (ip), vehicle: other 109 % of control | dose: 350.0 mg/kg/injection, schedule: Q01DX Z (ip), vehicle: other 88 % of control

COc1ccccc1C1CCCCC1OS(C)(=O)=O (centres undefined)
inactive: dose: 100.0 mg/kg/injection, schedule: Q01DX001 (ip), vehicle: carboxymethylcellulose (CMC) 103 % of control | dose: 200.0 mg/kg/injection, schedule: Q01DX001 (ip), vehicle: carboxymethylcellulose (CMC) 111 % of control | dose: 400.0 mg/kg/injection, schedule: Q01DX001 (ip), vehicle: carboxymethylcellulose (CMC) 92 % of control

CCCCNc1c(C(=O)OCC)c[nH]c(=O)c1C(C)=O
inactive: [10] 97 % of control | [11] 97 % of control | [12] 87 % of control

O=S(O)c1ccccc1
inactive: dose: 100.0 mg/kg/injection, schedule: Q01DX009 (ip), vehicle: saline 96 % of control | dose: 200.0 mg/kg/injection, schedule: Q01DX009 (ip), vehicle: saline 105 % of control | dose: 400.0 mg/kg/injection, schedule: Q01DX009 (ip), vehicle: saline 103 % of control

C=CCc1cc(CNCCCO)c(O)c(OC)c1
inactive: dose: 25.0 mg/kg/injection, schedule: Q04DX003 (ip), vehicle: Klucel (hydroxypropylcellulose) (HPC) 93 % of control | dose: 50.0 mg/kg/injection, schedule: Q04DX003 (ip), vehicle: Klucel (hydroxypropylcellulose) (HPC) 95 % of control | [10] 93 % of control

Cc1ccc(C)c(NC(=O)Nc2cccc(O)c2)c1
inactive: [1] 102 % of control | dose: 100.0 mg/kg/injection, schedule: Q04DX002 (ip), vehicle: Klucel (hydroxypropylcellulose) (HPC) 109 % of control | [2] 103 % of control | dose: 200.0 mg/kg/injection, schedule: Q04DX002 (ip), vehicle: Klucel (hydroxypropylcellulose) (HPC) 102 % of control | [3] 94 % of control | dose: 400.0 mg/kg/injection, schedule: Q04DX002 (ip), vehicle: Klucel (hydroxypropylcellulose) (HPC) 109 % of control

ClC1=C(Cl)C2(Cl)CCC1(Cl)C2(Cl)Cl
inactive: [4] 101 % of control | [5] 97 % of control | [6] 108 % of control

Cc1ccc(O)c(C(c2cc(S(=O)(=O)O)c(O)cc2C)N2CN(C(c3cc(S(=O)(=O)O)c(O)cc3C)c3cc(C)ccc3O)C2=O)c1 (centres undefined)
inactive: [7] 101 % of control | [8] 93 % of control

Cc1cc2c(cc1C)C(O)C(N1CCN(C)CC1)CCC2 (centres undefined)
inactive: [19] 103 % of control | [17] 97 % of control | [18] 92 % of control

From PubChem BioAssay AID248 (DTP/NCI, 2004)
